The values that follow come from article PMC8877008, “Synthesis and Structure–Activity Relationship Studies of Benzimidazole-4,7-dione-Based P2X3 Receptor Antagonists as Novel Anti-Nociceptive Agents” (Molecules, 2022).

One assay deals with T1, hP2X3R (Homo sapiens, UniProt P56373).
T1 construct: expressed in transfected cells
T1 sequence (P56373 1-397): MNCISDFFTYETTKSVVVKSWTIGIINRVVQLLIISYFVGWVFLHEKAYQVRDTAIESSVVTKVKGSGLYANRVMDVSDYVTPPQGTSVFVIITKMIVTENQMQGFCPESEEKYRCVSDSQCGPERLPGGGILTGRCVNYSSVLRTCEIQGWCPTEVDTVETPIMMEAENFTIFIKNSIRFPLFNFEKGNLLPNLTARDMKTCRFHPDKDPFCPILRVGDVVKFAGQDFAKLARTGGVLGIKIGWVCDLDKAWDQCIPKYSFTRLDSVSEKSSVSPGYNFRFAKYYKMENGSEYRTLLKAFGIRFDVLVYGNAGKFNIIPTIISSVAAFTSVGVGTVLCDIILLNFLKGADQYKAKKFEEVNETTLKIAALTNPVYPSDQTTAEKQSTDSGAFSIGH
Nature of the assay: Calcium influx (Fluo-4) evoked by α,β-meATP in HEK293 cells stably expressing hP2X3R. The settings on record: antagonistic activity; HEK293 cells expressing hP2X3R; agonist at EC70. Format: cell-based. How it is done: For the evaluation of P2XR activities, a cell-based assay system was employed to measure the level of fluorescence emission, based on Fluo-4 dye, during Ca^2+ influx evoked by αβmeATP in HEK293 cells stably expressing hP2X2/3R and hP2X3R. The library containing 8364 representative compounds for the screening of antagonistic activity was provided by the Korea Chemical Bank. The antagonistic activities were evaluated in the presence of P2X3R agonist of the concentration for EC70 value (200–250 nM for hP2X3R and 1–4 μM for hP2X2/3R highly expressed cell lines), and AF353 was used as the positive control antagonist for comparison. For the first round of screening, a single concentration (25 μM) of each library compound was tested to identify initial hit compounds, which were subsequently validated using both concentrations of 25 and 10 μM. Using a cut-off threshold of higher than 50% antagonistic activity and after confirming dose-dependency, 12 main hit compounds were selected.
3.4. Cell-Based Assay: Measurement of Calcium Influx by Fluorescence-Based Fluo-4 Dye Uptake in HEK293 Cells Expressing hP2X2/3 and hP2X3 Receptors
Human P2X3-expressing HEK293 cells were grown in DMEM supplemented with 10% fetal bovine serum and 1% antibiotic–antimycotic as a monolayer culture at 37 °C in a humidified atmosphere of 5% CO2. The 96-well black plates used in the experiments were prepared by coating them with 1× poly-D-lysine (A3890401, Thermo-Fisher Scientific Korea, Seoul, South Korea). An aliquot of 40 μL 1× poly-D-lysine was used to treat each of the wells in a flat orientation. After leaving the plates for at least 4 h to absorb the poly-D-lysine, the plates were allowed to dry for at least 6 h. The DMEM used in the culture of HEK293 cells was removed from the dish, followed by application of 3 mL 1× PBS for washing. Removal of 1× PBS was followed by application of 1 mL trypsin/EDTA, and the cells were collected by centrifugation at 1200 rpm for 2 min. The supernatant was removed, and 1 mL fresh DMEM added. The cells were resuspended in media and plates prepared with 4.8 × 10^4 cells/well in 56 μL/well. After 18 h of cell culture in the 96-well black plate, 56 μL of Fluo-4 dye (Fluo-4 Direct^TM Calcium Assay Kit, F10471, Invitrogen, Thermo-Fisher Scientific Korea, Seoul, South Korea) was added to each well, prepared according to the manufacturer’s protocol, and incubated for 50 min~1 h under culturing conditions. Then, 12.4 μL of the appropriate compound solution was added to each well, and the positive control was AF353 (A1612, Sigma Aldrich Korea, Seoul, South Korea) and the negative control was 5% DMSO. Plates were incubated at room temperature and sealed to avoid interference from light for 50 min~1 h. Flexstation 3 and its software provided by Molecular Devices was used for the measurement of fluorescence in real time of treatments using prepared α,β-meATP (M6517, Sigma Aldrich) solution to evoke calcium influx and increased cell membrane potential.
For the analysis of antagonistic activities, all data were calculated by Origin Pro 9.1 software provided by Originlab and the fitting of graphs was proceeded by the growth/sigmoidal and hill1 process within no weights for data selections. For the analysis of the behavioral assessments of pain models, all data are expressed as mean ± SEM. The dose–response data are presented as percentages of the maximum possible effect. Statistical significance was analyzed by independent t-test. The criterion for statistical significance was p < 0.05. The statistical analysis was performed using SPSS 25.0 software (IBM Corp., Armonk, NY, USA).
What is called IC50 is the concentration at which inhibition is half-maximal. `O=C1C(Cl)=C(Nc2ccc(Cl)cc2)C(=O)c2[nH]c(C(F)(F)F)nc21` [11b, 6-Chloro-5-((4-chlorophenyl)amino)-2-(trifluoromethyl)-1H-benzo[d]imidazole-4,7-dione]: the 50% inhibitory concentration (IC50) was 0.825 ± 0.07 µM.
`O=C1C(Nc2ccc(F)c(Br)c2)=C(Cl)C(=O)c2[nH]c(C(F)(F)F)nc21` [11i, 5-((3-Bromo-4-fluorophenyl)amino)-6-chloro-2-(trifluoromethyl)-1H-benzo[d]imidazole-4,7-dione]: the IC50 was 1.04 ± 0.221 µM.
As for `O=C1C(Nc2ccc(Cl)c(Cl)c2)=C(Cl)C(=O)c2[nH]c(C(F)(F)F)nc21` [11d, 6-Chloro-5-((3,4-dichlorophenyl)amino)-2-(trifluoromethyl)-1H-benzo[d]imidazole-4,7-dione], the IC50 came out at 0.808 ± 0.075 µM.
As to `Cc1nc2c([nH]1)C(=O)C(Cl)=C(Nc1ccc(Cl)cc1)C2=O` [10b, 6-Chloro-5-((4-chlorophenyl)amino)-2-methyl-1H-benzo[d]imidazole-4,7-dione], the IC50 was determined as 3.72 ± 0.731 µM.
`O=C1C(NC2CCN(C(=O)c3ccc(Cl)c(Cl)c3)CC2)=C(Cl)C(=O)c2[nH]c(C(F)(F)F)nc21` [14g, 6-Chloro-5-((1-(3,4-dichlorobenzoyl)piperidin-4-yl)amino)-2-(trifluoromethyl)-1H-benzo[d]imidazole-4,7-dione]: the IC50 worked out at 0.577 ± 0.066 µM.
For the compound `O=C1C(Nc2ccc(Cl)cc2F)=C(Cl)C(=O)c2[nH]c(C(F)(F)F)nc21` [11g, 6-Chloro-5-((4-chloro-2-fluorophenyl)amino)-2-(trifluoromethyl)-1H-benzo[d]imidazole-4,7-dione], the IC50 was found to be 0.526 ± 0.141 µM.
Regarding `O=C1C(NC2CCN(C(=O)c3ccc(Br)cc3)CC2)=C(Cl)C(=O)c2[nH]c(C(F)(F)F)nc21` [14f, 5-((1-(4-Bromobenzoyl)piperidin-4-yl)amino)-6-chloro-2-(trifluoromethyl)-1H-benzo[d]imidazole-4,7-dione], the IC50 is 0.804 ± 0.091 µM.
In the case of `O=C1C(NC2CCN(C(=O)c3ccc(F)c(Cl)c3)CC2)=C(Cl)C(=O)c2[nH]c(C(F)(F)F)nc21` [14i, 6-Chloro-5-((1-(3-chloro-4-fluorobenzoyl)piperidin-4-yl)amino)-2-(trifluoromethyl)-1H-benzo[d]imidazole-4,7-dione], the IC50 came to 0.505 ± 0.051 µM.
As for `O=C1C(NC2CCN(C(=O)c3ccc(F)cc3)CC2)=C(Cl)C(=O)c2[nH]c(C(F)(F)F)nc21` [14d, 6-Chloro-5-((1-(4-fluorobenzoyl)piperidin-4-yl)amino)-2-(trifluoromethyl)-1H-benzo[d]imidazole-4,7-dione], the concentration for half-maximal inhibition (IC50) was found to be 0.45 ± 0.059 µM.
Still for that read-out and setting: to `O=C1C(NC2CCN(C(=O)c3ccccc3)CC2)=C(Cl)C(=O)c2[nH]c(C(F)(F)F)nc21` [14c, 5-((1-Benzoylpiperidin-4-yl)amino)-6-chloro-2-(trifluoromethyl)-1H-benzo[d]imidazole-4,7-dione] belongs 0.864 ± 0.112 µM; to `O=C1C(Nc2ccc(F)c(Cl)c2)=C(Cl)C(=O)c2[nH]c(C(F)(F)F)nc21` [11f, 6-Chloro-5-((3-chloro-4-fluorophenyl)amino)-2-(trifluoromethyl)-1H-benzo[d]imidazole-4,7-dione], 0.703 ± 0.096 µM.
With `O=C1C(NC2CCN(C(=O)c3ccc(C(F)(F)F)cc3)CC2)=C(Cl)C(=O)c2[nH]c(C(F)(F)F)nc21` [14k, 6-Chloro-2-(trifluoromethyl)-5-((1-(4-(trifluoromethyl)benzoyl)piperidin-4-yl)amino)-1H-benzo[d]imidazole-4,7-dione], the concentration for half-maximal inhibition (IC50) was more than 10 µM.
For `N#Cc1ccc(C(=O)N2CCC(NC3=C(Cl)C(=O)c4[nH]c(C(F)(F)F)nc4C3=O)CC2)cc1` [14j, 4-(4-((6-Chloro-4,7-dioxo-2-(trifluoromethyl)-4,7-dihydro-1H-benzo[d]imidazol-5-yl)amino)piperidine-1-carbonyl)benzonitrile], the IC50 came out at 4.44 ± 0.48 µM.
As to `O=C1C(Nc2ccc(Cl)c(F)c2)=C(Cl)C(=O)c2[nH]c(C(F)(F)F)nc21` [11h, 6-Chloro-5-((4-chloro-3-fluorophenyl)amino)-2-(trifluoromethyl)-1H-benzo[d]imidazole-4,7-dione], the IC50 was found to be 0.541 ± 0.103 µM.

Still in this assay, the particulars now being: relative to hit compound KCB-77033.
`Cc1nc2c([nH]1)C(=O)C(Cl)=C(Nc1ccc(Cl)cc1)C2=O` [10b, 6-Chloro-5-((4-chlorophenyl)amino)-2-methyl-1H-benzo[d]imidazole-4,7-dione]: the “Decrease of P2X3R antagonistic activity compared with KCB-77033” value was 4–5 fold.
